Laboratory results from US11840527B2, “Non-fused thiophene derivatives and their uses” (ENYO PHARMA, priority 2018, dated 2023).
Structures can show the parent of a compound that is named as a salt.

Test system: H1N1 (influenza A/New Caledonia/20/99)
Experiment: Antiviral effect on A549 cells infected with H1N1
Type: cell-based, H1N1 A/New Caledonia/20/99 virus
Settings: Influenza A virus, MOI 0.1, 48 h post-infection, MUNANA neuraminidase readout
Procedure: The antiviral effect of the compounds of the invention have been tested on A549 cell lines infected with H1N1 (influenza A/New Caledonia/20/99).
Human A549 cells (80,000 cells/well in a 96 well plate) were treated with a range of concentration of test compounds and immediately infected by H1N1 A/New Caledonia/20/99 virus (clinical isolate) at MOI of 0.1 in DMEM/1% Penicillin/streptomycin supplemented with […] TPCK trypsin (Sigma) and incubated at 37° C. in 5% CO2. 48 h post-infection, supernatants (25 μl) were collected and transferred into a 96-well black flat-bottom plate, mixed with 25 μl PBS with Ca++/Mg++ (Thermo Fisher) and 50 μl of 2′-(4-Methylumbelliferyl)-ax-D-N-acetylneuraminic acid sodium salt hydrate stock-solution (20 μM, MUNANA, Sigma). Plates were incubated 1h at 37° C. and reaction is stopped by adding 100 μl of Stop Solution (glycine 0.1 M pH10.7/25% ethanol). The amount of fluorescent product released by MUNANA hydrolysis (4-MU) was measured in a Tecan spectrophotometer with excitation and emission wavelengths of 365 and 450 nm respectively.

Structure (SMILES)	IC50 [nM]
O=C(Nc1scc(C2CC2)c1C(=O)O)c1ccc(NCC2CCOCC2)cc1 [Compound #90, 4-Cyclopropyl-2-[[4-(tetrahydropyran-4-ylmethylamino)benzoyl]amino]thiophene-3-carboxylic acid]	240
CC(C)(C)c1csc(NC(=O)c2ccccc2)c1C(=O)O [Compound #32, 2-Benzamido-4-tert-butyl-thiophene-3-carboxylic acid]	1470
O=C(Nc1scc(C2CC(c3ccccc3)C2)c1C(=O)O)c1ccccc1 (stereo not shown) [Compound #63, 2-Benzamido-4-(3-phenylcyclobutyl)thiophene-3-carboxylic acid]	150
COC1CN(c2ccc(C(=O)Nc3scc(C4CCCC4)c3C(=O)O)cc2)C1 [Compound #62, 4-Cyclopentyl-2-[[4-(3-methoxyazetidin-1-yl)benzoyl]amino]thiophene-3-carboxylic acid]	52
O=C(Nc1scc(-c2ccccc2)c1C(=O)O)c1ccccc1 [Compound #43, 2-Benzamido-4-phenyl-thiophene-3-carboxylic acid]	5950
CC(C)Cc1csc(NC(=O)c2ccc(NCC3CCOCC3)cc2)c1C(=O)O [Compound #113, 4-Isobutyl-2-[[4-(tetrahydropyran-4-ylmethylamino)benzoyl]amino]thiophene-3-carboxylic acid]	120
Cc1ccc(-c2c(Cl)sc(NC(=O)c3ccccc3)c2C(=O)O)cc1 [Compound #24, 2-Benzamido-5-chloro-4-(p-tolyl)thiophene-3-carboxylic acid]	350
O=C(Nc1scc(-c2cccc(Cl)c2)c1C(=O)O)c1ccccc1 [Compound #36, 2-Benzamido-4-(3-chlorophenyl)thiophene-3-carboxylic acid]	1670
O=C(Nc1sc(Cl)c(C2CCCCC2)c1C(=O)O)c1ccc(OC(F)F)cc1 [Compound #13, 5-Chloro-4-cyclohexyl-2-[[4-(difluoromethoxy)benzoyl]amino]thiophene-3-carboxylic acid]	370
COC1CN(c2ccc(C(=O)Nc3scc(C4CCC4)c3C(=O)O)cc2)C1 [Compound #97, 4-Cyclobutyl-2-[[4-(3-methoxyazetidin-1-yl)benzoyl]amino]thiophene-3-carboxylic acid]	110
COC1CN(c2ccc(C(=O)Nc3sc(C(C)C)c(C)c3C(=O)O)cc2)C1 [Compound #114, 5-Isopropyl-2-[[4-(3-methoxyazetidin-1-yl)benzoyl]amino]-4-methyl-thiophene-3-carboxylic acid diethylamine salt]	510
O=C(Nc1scc(C2CCCC2)c1C(=O)O)c1ccc(N2CCOCC2)cc1 [Compound #59, 4-Cyclopentyl-2-[(4-morpholinobenzoyl)amino]thiophene-3-carboxylic acid]	75
CC(C)(C)c1csc(NC(=O)c2ccc(NC3CCCOC3)cc2)c1C(=O)O (stereo not shown) [Compound #118, 4-tert-Butyl-2-[[4-(tetrahydropyran-3-ylamino)benzoyl]amino]thiophene-3-carboxylic acid]	200
COCCN(C)c1ccc(C(=O)Nc2scc(C(C)(C)C)c2C(=O)O)cc1 [Compound #117, 4-tert-Butyl-2-[[4-[2-methoxyethyl(methyl)amino]benzoyl]amino]thiophene-3-carboxylic acid]	76
CC(C)(C)c1csc(NC(=O)c2ccc(NCC3CCOCC3)cc2)c1C(=O)O [Compound #91, 4-Tert-butyl-2-[[4-(tetrahydropyran-4-ylmethylamino)benzoyl]amino]thiophene-3-carboxylic acid]	120
COC1CN(c2ccc(C(=O)Nc3sc(C)c(C)c3C(=O)O)cc2)C1 [Compound #100, 2-[[4-(3-Methoxyazetidin-1-yl)benzoyl]amino]-4,5-dimethyl-thiophene-3-carboxylic acid]	44.5
COC1CN(c2ccc(C(=O)Nc3scc(C(C)(C)C)c3C(=O)O)c(F)c2)C1 [Compound #121, 4-tert-Butyl-2-[[2-fluoro-4-(3-methoxyazetidin-1-yl)benzoyl]amino]thiophene-3-carboxylicacid]	510

Structure (SMILES)	IC50 [nM]
COC1CN(c2ccc(C(=O)Nc3scc(C4(C)CCC4)c3C(=O)O)cc2)C1 [Compound #115, 2-[[4-(3-Methoxyazetidin-1-yl)benzoyl]amino]-4-(1-methylcyclobutyl) thiophene-3-carboxylic acid]	240
COC1CN(c2ccc(C(=O)Nc3scc(C4CC4)c3C(=O)O)cc2)C1 [Compound #88, 4-Cyclopropyl-2-[[4-(3-methoxyazetidin-1-yl)benzoyl]amino]thiophene-3-carboxylic acid]	500
Cc1ccc(-c2csc(NC(=O)c3ccccc3)c2C(=O)O)cc1 [Compound #21, 2-Benzamido-4-(p-tolyl)thiophene-3-carboxylic acid]	610
COC1CN(c2ccc(C(=O)Nc3scc(C4CC(F)(F)C4)c3C(=O)O)cc2)C1 [Compound #107, 4-(3,3-Difluorocyclobutyl)-2-[[4-(3-methoxyazetidin-1-yl)benzoyl]amino]thiophene-3-carboxylic acid]	460
COC1CN(c2ccc(C(=O)Nc3scc(CC(C)C)c3C(=O)O)cc2)C1 [Compound #109, 4-iso-Butyl-2-[[4-(3-methoxyazetidin-1-yl)benzoyl]amino]thiophene-3-carboxylic acid diethylamine salt]	200
O=C(Nc1scc(-c2ccccc2)c1C(=O)O)c1ccc(OC(F)F)cc1 [Compound #28, 2-[[4-(Difluoromethoxy)benzoyl]amino]-4-phenyl-thiophene-3-carboxylic acid]	1270
O=C(Nc1scc(C2CCCC2)c1C(=O)O)c1ccccc1 [Compound #10, 2-Benzamido-4-cyclopentyl-thiophene-3-carboxylic acid]	205
COCCOc1ccc(C(=O)Nc2scc(C3COc4ccccc4C3)c2C(=O)O)cc1 (stereo not shown) [Compound #95, 4-Chroman-3-yl-2-[[4-(2-methoxyethoxy)benzoyl]amino]thiophene-3-carboxylic acid]	610
O=C(Nc1scc(C2CCCCC2)c1C(=O)O)c1ccc(N2CCOCC2)cc1 [Compound #29, 4-Cyclohexyl-2-[(4-morpholinobenzoyl)amino]thiophene-3-carboxylic acid]	1270
Cc1sc(NC(=O)c2ccc(NCC3CCOCC3)cc2)c(C(=O)O)c1C [Compound #102, 4,5-Dimethyl-2-[[4-(tetrahydropyran-4-ylmethylamino)benzoyl]amino]thiophene-3-carboxylic acid]	820
O=C(Nc1sc(Cl)c(-c2ccc(C(F)(F)F)cc2)c1C(=O)O)c1ccccc1 [Compound #50, 2-Benzamido-5-chloro-4-[4-(trifluoromethyl)phenyl]thiophene-3-carboxylic acid]	320
O=C(Nc1scc(C2CC(F)(F)C2)c1C(=O)O)c1ccc(NCC2CCOCC2)cc1 [Compound #106, 4-(3,3-Difluorocyclobutyl)-2-[[4-(tetrahydropyran-4-ylmethylamino)benzoyl]amino]thiophene-3-carboxylic acid]	350
CC(C)(C)[C@H]1CC[C@H](c2csc(NC(=O)c3ccccc3)c2C(=O)O)CC1 [Compound #48, 2-Benzamido-4-(trans-4-tert-butylcyclohexyl)thiophene-3-carboxylic acid]	350
Cc1ccc(-c2csc(NC(=O)c3ccccc3)c2C(=O)O)cc1C [Compound #22, 2-Benzamido-4-(3,4-dimethylphenyl)thiophene-3-carboxylic acid]	550
O=C(Nc1scc(C2CCCCC2)c1C(=O)O)c1ccc(OC(F)F)cc1 [Compound #11, 4-Cyclohexyl-2-[[4-(difluoromethoxy)benzoyl]amino]thiophene-3-carboxylic acid]	412
COC1CN(c2ccc(C(=O)Nc3scc(C4(C)CC4)c3C(=O)O)cc2)C1 [Compound #112, 2-[[4-(3-Methoxyazetidin-1-yl)benzoyl]amino]-4-(1-methylcyclopropyl) thiophene-3-carboxylic acid]	380
Cc1ccccc1C(=O)Nc1sc(-c2ccccc2)cc1C(=O)O [Compound #45, 2-[(2-Methylbenzoyl)amino]-5-phenyl-thiophene-3-carboxylic acid]	8550
